The record followed here is patent US10195185B2, “3-(1H-imidazo[4,5-C]pyridin-2-yl)-1H-pyrazolo[4,3-B]pyridines and therapeutic uses thereof” (Samumed, LLC, priority 2015, dated 2019).

Experiment [1] deals with Wnt activity (Wnt-responsive human Sp5 promoter, TCF/LEF binding sites) in SW480 colon carcinoma cells. As to the kind of experiment: Wnt activity screening assay: Sp5-Luc luciferase reporter gene in SW480 cells. It counts as cell-based. The following applies: for EC50: 10-point dose-response from 10 μM, incubated overnight; for inhibition at 10 µM: given for EC50 of >10 μM, read-out: percent inhibition at 10 μM. The method in brief: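 Luminescence read-out (BrightGlo) from stable Sp5-Luc SW480 cells, normalized to DMSO-only wells. Cells were treated overnight at 37° C in 1% FBS medium across a 1:3, 10-point series starting at 10 μM. EC50 from variable-slope four-parameter regression; percent inhibition at 10 μM given where EC50 >10 μM.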
(A reporter such as luciferase makes a cellular process visible.)

Another experiment deals with SW480 colon cancer cells. As to the kind of experiment: Cell viability assay (CellTiter-Blue), four days. It is filed as cell-based. The following applies: Homo sapiens, 96 h; for inhibition at 10 µM: read-out: percent inhibition at 10 μM (given for EC50 of >10 μM); for EC50: CellTiter-Blue cell viability. Summed up: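 Approximately 2×10^3 SW480 cells per well are seeded with compound (8 points, threefold steps, top 10 μM) and incubated four days at 37 °C. CellTiter-Blue is then added for about 3 h and fluorescence read. Non-linear regression gives EC50; for values beyond 10 μM, percent inhibition at that concentration is listed.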
(Resazurin is reduced to fluorescent resorufin, in cell work by metabolically active cells.)

A value given as a limit tells only on which side of the number the result lay.

As usually defined, the EC50 is the concentration that produces a half-maximal response. A high value points to a less potent agent. Broadly, the inhibition is the drop in the measured response relative to a control, in per cent. On to `Oc1cncc(-c2ccc3[nH]nc(-c4nc5cnccc5[nH]4)c3n2)c1` [Compound 661, 5-(3-(1H-Imidazo[4,5-c]pyridin-2-yl)-1H-pyrazolo[4,3-b]pyridin-5-yl) pyridin-3-ol], for which, in experiment [1], the 50% effective concentration (EC50) was > 10 µM and the inhibition at 10 µM worked out at 10.7%. Further, in the experiment with SW480 colon cancer cells, the inhibition at 10 µM came out at 13.5% and the EC50 is > 10 µM.

Regarding `O=C(CC1CCNCC1)Nc1cncc(-c2ccc3[nH]nc(-c4nc5c(-c6ccsc6)nccc5[nH]4)c3n2)c1` [Compound 673, 2-(Piperidin-4-yl)-N-(5-(3-(4-(thiophen-3-yl)-1H-imidazo[4,5-c]pyridin-2-yl)-1H-pyrazolo[4,3-b]pyridin-5-yl)pyridin-3-yl)acetamide], in experiment [1], the EC50 is > 10 µM and the inhibition at 10 µM came out at 22.6%. Moreover, in the experiment on SW480 colon cancer cells, the inhibition at 10 µM is 6.6% and the EC50 was > 10 µM.

For `Cc1ncc(-c2ccc3[nH]nc(-c4nc5c(-c6ccoc6)nccc5[nH]4)c3n2)n1C` [Compound 685, 5-(1,2-Dimethyl-1H-imidazol-5-yl)-3-(4-(furan-3-yl)-1H-imidazo[4,5-c]pyridin-2-yl)-1H-pyrazolo[4,3-b]pyridine], the EC50 in experiment [1] is 0.211 µM; in the experiment on SW480 colon cancer cells it was 0.624 µM.

Consider `c1cc2[nH]c(-c3n[nH]c4ccc(-c5cncc(OCCN6CCCC6)c5)nc34)nc2c(-c2ccoc2)n1` [Compound 690, 3-(4-(Furan-3-yl)-1H-imidazo[4,5-c]pyridin-2-yl)-5-(5-(2-(pyrrolidin-1-yl)ethoxy)pyridin-3-yl)-1H-pyrazolo[4,3-b]pyridine], for which the EC50 turned out to be 3.83 µM in experiment [1] and 4.3 µM in the experiment with SW480 colon cancer cells.

Take `COc1cncc(-c2ccc3[nH]nc(-c4nc5c(-c6ccoc6)nccc5[nH]4)c3n2)c1` [Compound 692, 3-(4-(Furan-3-yl)-1H-imidazo[4,5-c]pyridin-2-yl)-5-(5-methoxypyridin-3-yl)-1H-pyrazolo[4,3-b]pyridine]: the EC50 in experiment [1] was 0.745 µM; with SW480 colon cancer cells it was 1.57 µM.

As for `Cn1cc(-c2ccc3[nH]nc(-c4nc5c(-c6cccs6)nccc5[nH]4)c3n2)cn1` [Compound 700, 5-(1-Methyl-1H-pyrazol-4-yl)-3-(4-(thiophen-2-yl)-1H-imidazo[4,5-c]pyridin-2-yl)-1H-pyrazolo[4,3-b]pyridine], the EC50 came out at 0.456 µM in experiment [1] and 0.775 µM in the experiment on SW480 colon cancer cells.

Take `Cc1ccc(-c2nccc3[nH]c(-c4n[nH]c5ccc(C6=CCNCC6)nc45)nc23)s1` [Compound 730, 3-(4-(5-Methylthiophen-2-yl)-1H-imidazo[4,5-c]pyridin-2-yl)-5-(1,2,3,6-tetrahydropyridin-4-yl)-1H-pyrazolo[4,3-b]pyridine]: in experiment [1], the EC50 is > 10 µM and the inhibition at 10 µM stood at 43.4%. The molecule further came in with an EC50 with SW480 colon cancer cells of 5.26 µM.

Regarding `Cc1ccc(-c2nccc3[nH]c(-c4n[nH]c5ccc(-c6cncc(OC7CCCCC7)c6)nc45)nc23)s1` [Compound 735, 5-(5-(Cyclohexyloxy)pyridin-3-yl)-3-(4-(5-methylthiophen-2-yl)-1H-imidazo[4,5-c]pyridin-2-yl)-1H-pyrazolo[4,3-b]pyridine], the EC50 is 1.04 µM in experiment [1] and > 10 µM with SW480 colon cancer cells. The inhibition at 10 µM in the experiment with SW480 colon cancer cells is 0%.

Turning to `Cn1cc(-c2ccc3[nH]nc(-c4nc5c(-c6cc(F)cc(CNS(C)(=O)=O)c6)nccc5[nH]4)c3n2)cn1` [Compound 764, N-(3-Fluoro-5-(2-(5-(1-methyl-1H-pyrazol-4-yl)-1H-pyrazolo [4,3-b]pyridin-3-yl)-1H-imidazo[4,5-c]pyridin-4-yl)benzyl)methanesulfonamide], the concentration for a half-maximal effect (EC50) in experiment [1] was found to be 0.837 µM; in the experiment with SW480 colon cancer cells, 5.88 µM.

Regarding `CS(=O)(=O)NCc1cc(F)cc(-c2nccc3[nH]c(-c4n[nH]c5ccc(-c6cncc(NC(=O)CC7CCNCC7)c6)nc45)nc23)c1` [Compound 769, N-(5-(3-(4-(3-Fluoro-5-(methylsulfonamidomethyl)phenyl)-1H-imidazo[4,5-c]pyridin-2-yl)-1H-pyrazolo[4,3-b]pyridin-5-yl)pyridin-3-yl)-2-(piperidin-4-yl)acetamide], in experiment [1], the EC50 was > 10 µM and the inhibition at 10 µM is 9.8%. In addition, in the experiment on SW480 colon cancer cells, the inhibition at 10 µM turned out to be 7.7% and the concentration for a half-maximal effect (EC50) is > 10 µM.

Regarding `CN(C)CCNc1cc(F)cc(-c2nccc3[nH]c(-c4n[nH]c5ccc(-c6cncc(OCCN7CCCC7)c6)nc45)nc23)c1` [Compound 786, N^1-(3-Fluoro-5-(2-(5-(5-(2-(pyrrolidin-1-yl)ethoxy)pyridin-3-yl)-1H-pyrazolo[4,3-b]pyridin-3-yl)-1H-imidazo[4,5-c]pyridin-4-yl)-5phenyl)-N^2,N^2-dimethylethane-1,2-diamine], the EC50 in experiment [1] came out at 4.41 µM. In addition, in the experiment with SW480 colon cancer cells, the inhibition at 10 µM came out at 15.9% and the EC50 is > 10 µM.

Consider `CN(C)CCNc1cc(F)cc(-c2nccc3[nH]c(-c4n[nH]c5ccc(-c6cnccn6)nc45)nc23)c1` [Compound 792, N^1-(3-Fluoro-5-(2-(5-(pyrazin-2-yl)-1H-pyrazolo[4,3-b]pyridin-3-yl)-1H-imidazo[4,5-c]pyridin-4-yl)phenyl)-N^2,N^2-dimethylethane-1,2-diamine], for which the EC50 (in experiment [1]; in the experiment with SW480 colon cancer cells) was > 10 µM throughout. The inhibition at 10 µM in experiment [1] was 36.2%; in the experiment on SW480 colon cancer cells, 22.1%.

Consider `COc1cccc(-c2nccc3[nH]c(-c4n[nH]c5ccc(-c6cncc(NC(=O)CC(C)(C)C)c6)nc45)nc23)c1` [Compound 1006, N-(5-(3-(4-(3-methoxyphenyl)-1H-imidazo[4,5-c]pyridin-2-yl)-1H-pyrazolo [4,3-b]pyridin-5-yl)pyridin-3-yl)-3,3-dimethylbutanamide], for which the EC50 (in experiment [1]; in the experiment on SW480 colon cancer cells) was > 10 µM throughout. The inhibition at 10 µM in experiment [1] was 16.6%; in the experiment with SW480 colon cancer cells, 0%.

With `COc1cccc(-c2nccc3[nH]c(-c4n[nH]c5ccc(-c6cn[nH]c6)nc45)nc23)c1` [Compound 1020, 3-(4-(3-Methoxyphenyl)-1H-imidazo[4,5-c]pyridin-2-yl)-5-(1H-pyrazol-4-yl)-1H-pyrazolo[4,3-b]pyridine], in experiment [1], the EC50 is > 10 µM and the inhibition at 10 µM is 5.7%. Also, in the experiment on SW480 colon cancer cells, the inhibition at 10 µM amounted to 6.4% and the EC50 was > 10 µM.

Take `COc1cccc(-c2nccc3[nH]c(-c4n[nH]c5ccc(-c6cncc(OC7CCNCC7)c6)nc45)nc23)c1` [Compound 1025, 3-(4-(3-Methoxyphenyl)-1H-imidazo[4,5-c]pyridin-2-yl)-5-(5-(piperidin-4-yloxy)pyridin-3-yl)-1H-pyrazolo[4,3-b]pyridine]: in experiment [1], the EC50 is > 10 µM and the inhibition at 10 µM is 15.1%. Moreover, in the experiment with SW480 colon cancer cells, the inhibition at 10 µM worked out at 12.7% and the EC50 is > 10 µM.

Turning to `COc1cccc(-c2nccc3[nH]c(-c4n[nH]c5ccc(-c6cncc(O)c6)nc45)nc23)c1` [Compound 1030, 5-(3-(4-(3-Methoxyphenyl)-1H-imidazo[4,5-c]pyridin-2-yl)-1H-pyrazolo [4,3-b]pyridin-5-yl)pyridin-3-ol], in experiment [1], the EC50 is > 10 µM and the inhibition at 10 µM turned out to be 14.1%. In the experiment with SW480 colon cancer cells, the inhibition at 10 µM amounted to 6% and the EC50 is > 10 µM.

In experiment [1], `NC1CN(c2cncc(-c3ccc4[nH]nc(-c5nc6c(-c7ccc(Cl)s7)nccc6[nH]5)c4n3)n2)C1` [Compound 1068, 1-(6-(3-(4-(5-Chlorothiophen-2-yl)-1H-imidazo[4,5-c]pyridin-2-yl)-1H-pyrazolo[4,3-b]pyridin-5-yl)pyrazin-2-yl)azetidin-3-amine] showed an EC50 of 4.2 µM. For the same molecule, in the experiment on SW480 colon cancer cells, the inhibition at 10 µM came to 48.2% and the EC50 was > 10 µM.

`c1cc2[nH]c(-c3n[nH]c4ccc(C5CCNCC5)nc34)nc2c(-c2ccc3c(c2)OCO3)n1` [Compound 1108, 3-(4-(Benzo[d][1,3]dioxol-5-yl)-1H-imidazo[4,5-c]pyridin-2-yl)-5-(piperidin-4-yl)-1H-pyrazolo[4,3-b]pyridine]: the EC50 (in experiment [1]; in the experiment on SW480 colon cancer cells) was > 10 µM throughout. In addition, the results for the inhibition at 10 µM (in experiment [1]; in the experiment on SW480 colon cancer cells) were 11% and 3.8%, respectively.

Consider `Cn1cc(-c2ccc3[nH]nc(-c4nc5c(-c6ccc(F)cc6)nccc5[nH]4)c3n2)c(CO)n1` [Compound 1128, (4-(3-(4-(4-Fluorophenyl)-1H-imidazo[4,5-c]pyridin-2-yl)-1H-pyrazolo[4,3-b]pyridin-5-yl)-1-methyl-1H-pyrazol-3-yl)methanol], for which, in experiment [1], the EC50 was > 10 µM and the inhibition at 10 µM was found to be 19.6%. In the experiment on SW480 colon cancer cells, the inhibition at 10 µM is 9.1% and the EC50 is > 10 µM.

Consider `Cn1cc(-c2ccc3[nH]nc(-c4nc5c(N6CCCCC6)nccc5[nH]4)c3n2)c(CO)n1` [Compound 1133, (1-Methyl-4-(3-(4-(piperidin-1-yl)-1H-imidazo[4,5-c]pyridin-2-yl)-1H-pyrazolo [4,3-b]pyridin-5-yl)-1H-pyrazol-3-yl)methanol], for which, in experiment [1], the EC50 is > 10 µM and the inhibition at 10 µM came out at 49.6%. Besides, in the experiment with SW480 colon cancer cells, the inhibition at 10 µM is 28.2% and the EC50 is > 10 µM.

Consider `Cn1cc(-c2ccc3[nH]nc(-c4nc5c(-c6ccc7c(c6)OCO7)nccc5[nH]4)c3n2)c(CO)n1` [Compound 1151, (4-(3-(4-(Benzo[d][1,3]dioxol-5-yl)-1H-imidazo[4,5-c]pyridin-2-yl)-1H-pyrazolo [4,3-b]pyridin-5-yl)-1-methyl-1H-pyrazol-3-yl)methanol], for which, in experiment [1], the EC50 was > 10 µM and the inhibition at 10 µM amounted to 33.9%. For the same molecule, in the experiment with SW480 colon cancer cells, the inhibition at 10 µM was found to be 3.7% and the EC50 was > 10 µM.
